# Laboratory results reported in patent US20140271604A1, “HDAC Inhibitor Polymorphic Forms and Methods of Use” (priority 2013, published 2014).
# Experiments:
# [1] = Storage of samples under ambient conditions, form assigned by XRPD; assay type: physicochemical
# [2] = Solubility assessment experiments in organic solvents
# Procedure: (§1) Solubility assessment experiments were carried out in a variety of solvents followed by storage in a climate chamber for 48 to 72 hours at 40 degrees centigrade and 75% relative humidity.
# [3] = Stability study in climate chamber (48-72 h, 40° C./75% RH), form assigned by XRPD; conditions: for XRPD Form c: form assigned after the stability studies / XRPD Form b: form assigned after the stability studies: at 40° C./75% RH; for XRPD Form b: form assigned after the stability studies: samples from anti-solvent addition, label = form before stability
# Procedure: as §1
# [4] = 48-72 H, samples from cooling-evaporative crystallization, Table 6, label = form after recrystallization
# [5] = 1-1.5 weeks ambient, cooling-evaporative crystallization, Table 6, label = form after recrystallization
# [6] = 1-1.5 weeks ambient, cooling-evaporative crystallization, Table 7, label = form after recrystallization
# [7] = 46-72 H, samples from solvent-drop grinding, Table 8, label = form after grinding
# [8] = 48-72 H, samples from cooling-evaporative crystallization, Table 7, label = form after recrystallization
# [9] = 1.5-2 weeks ambient, solvent-drop grinding, Table 8, label = form after grinding
# [10] = 1-1.5 weeks ambient, slurry conversion, Table 9, label = form after slurry
# [11] = 48-72 H, samples from slurry conversion, Table 9, label = form after slurry
# [12] = 48 to 72 hours at 40 degrees centigrade and 75% relative humidity
smiles,measurement,setting,value
CC(C)C(C(=O)Nc1ccc(C(=O)NO)cc1)c1ccccc1 (stereo not shown) [Form A + Am],XRPD Form b: form assigned after storage under ambient conditions,"[1]; 1-1.5 weeks ambient, cooling-evaporative crystallization, Table 6, label = form after recrystallization, experiment ML13, solvent 1 Butyl Acetate",Form U1 + Am*
same,XRPD Form b: form assigned after storage under ambient conditions,"[1]; 1-1.5 weeks ambient, cooling-evaporative crystallization, Table 6, label = form after recrystallization, experiment ML14, solvent 1 Chlorobenzene",Form A_wet**
same,Concentration,"[2]; Table 1, solvent Amyl Ether",<1 mg/mL
same,XRPD Form c: form assigned after the stability studies,[3]; [4],Form A + Am*
"CC(C)[C@H](C(=O)Nc1ccc(C(=O)NO)cc1)c1ccccc1 [Form A, (S)—N-hydroxy-4-(3-methyl-2-phenylbutanamido)benzamide]",XRPD Form b: form assigned after storage under ambient conditions,[1]; [5],Form A
same,XRPD Form b: form assigned after storage under ambient conditions,[1]; [6],Form A
same,XRPD Form b: form assigned after storage under ambient conditions,"[1]; 1.5-2 weeks ambient, solvent-drop grinding, Table 8, label = form after grinding, ground with a drop of Octanol-1",Form A
same,XRPD Form b: form assigned after storage under ambient conditions,"[1]; 1.5-2 weeks ambient, solvent-drop grinding, Table 8, label = form after grinding, ground with a drop of Propyl acetate",Form A5a
same,Concentration,"[2]; Table 2, solvent Amyl Ether",18.4 mg/mL
same,Concentration,"[2]; Table 2, solvent Dimethyl-4-heptanone 2,6-",20.3 mg/mL
same,Concentration,"[2]; Table 2, solvent Hexafluorobenzene",21.4 mg/mL
same,Concentration,"[2]; Table 2, solvent Nitromethane",21.2 mg/mL
same,Concentration,"[2]; Table 2, solvent Toluene",18.8 mg/mL
same,Concentration,"[2]; Table 2, solvent Trifluoroethanol, 2,2,2-",20.6 mg/mL
same,XRPD Form c: form assigned after the stability studies,[3]; [7],Form A
same,XRPD Form b: form assigned after the stability studies,"[3]; 48-72 H, Table 3",Form A
same,XRPD Form c: form assigned after the stability studies,[3]; [8],Form A
CC(C)[C@H](C(=O)Nc1ccc(C(=O)NO)cc1)c1ccccc1 [Form A_wet],XRPD Form b: form assigned after storage under ambient conditions,"[1]; 1-1.5 weeks ambient, cooling-evaporative crystallization, Table 6, label = form after recrystallization, experiment ML7, solvent 1 Dichloroethane",Form A
same,XRPD Form b: form assigned after storage under ambient conditions,"[1]; 1-1.5 weeks ambient, cooling-evaporative crystallization, Table 6, label = form after recrystallization, experiment ML8, solvent 1 Fluorbenzene",Form A_wet**
same,XRPD Form b: form assigned after storage under ambient conditions,"[1]; 1-1.5 weeks ambient, cooling-evaporative crystallization, Table 6, label = form after recrystallization, experiment ML32, solvent 1 Heptane, N-",Form U1 + Am*
same,XRPD Form b: form assigned after storage under ambient conditions,[1]; [9],Form A_wet**
same,Concentration,"[2]; Table 1, solvent Hexafluorobenzene",<1 mg/mL
same,XRPD Form c: form assigned after the stability studies,[3]; [7],Form A
same,XRPD Form b: form assigned after the stability studies,"[3]; 48-72 H, Table 3",Form A + Am*
CC(C)[C@H](C(=O)Nc1ccc(C(=O)NO)cc1)c1ccccc1 [Form B1_wet],XRPD Form b: form assigned after storage under ambient conditions,[1]; [6],Form B1_wet**
same,XRPD Form b: form assigned after storage under ambient conditions,[1]; [10],Form B1
same,Concentration,"[2]; Table 2, solvent Isophorone",243.7 mg/mL
same,XRPD Form c: form assigned after the stability studies,[3]; [11],Form A5a
"CC(C)[C@H](C(=O)Nc1ccc(C(=O)NO)cc1)c1ccccc1 [Form D1, (S)—N-hydroxy-4-(3-methyl-2-phenylbutanamido)benzamide]",XRPD Form b: form assigned after storage under ambient conditions,[1]; [6],Form D1
same,XRPD Form b: form assigned after storage under ambient conditions,[1]; [9],Form D1
same,Concentration,"[2]; Table 2, solvent Nitrobenzene",19.7 mg/mL
same,XRPD Form c: form assigned after the stability studies,[3]; [7],Form A
same,XRPD Form b: form assigned after the stability studies,"[3]; 48-72 H, Table 5",Form D2 + Am*
same,XRPD Form c: form assigned after the stability studies,[3]; [8],Form A
"CC(C)[C@H](C(=O)Nc1ccc(C(=O)NO)cc1)c1ccccc1 [Form C, (S)—N-hydroxy-4-(3-methyl-2-phenylbutanamido)benzamide]",Concentration,"[2]; Table 2, solvent Dimethyl Sulfoxide",472.5 mg/mL
"CC(C)[C@H](C(=O)Nc1ccc(C(=O)NO)cc1)c1ccccc1 [Form B1, (S)—N-hydroxy-4-(3-methyl-2-phenylbutanamido)benzamide]",XRPD Form b: form assigned after storage under ambient conditions,[1]; [6],Form B1
same,Concentration,"[2]; Table 1, solvent Dimethyl-4-heptanone 2,6-",2 mg/mL
same,Concentration,"[2]; Table 2, solvent Chloroform",20.8 mg/mL
same,XRPD Form c: form assigned after the stability studies,[3]; [8],Form B1
same,Stability after storage in a climate chamber,[3]; [12],exhibited a particular degree of stability
CC(C)[C@H](C(=O)Nc1ccc(C(=O)NO)cc1)c1ccccc1 [Am_oily],Concentration,"[2]; Table 1, solvent NMP",482.5 mg/mL
same,XRPD Form b: form assigned after the stability studies,"[3]; 48-72 H, Table 5",Form A
"CC(C)[C@H](C(=O)Nc1ccc(C(=O)NO)cc1)c1ccccc1 [Form F4_wet, (S)—N-hydroxy-4-(3-methyl-2-phenylbutanamido)benzamide]",XRPD Form b: form assigned after storage under ambient conditions,[1]; [10],Form A + Am*
same,XRPD Form c: form assigned after the stability studies,[3]; [11],Form A + Am*
CC(C)C(C(=O)Nc1ccc(C(=O)NO)cc1)c1ccccc1 (stereo not shown) [Form Y + Am],XRPD Form b: form assigned after storage under ambient conditions,[1]; [10],Form M2 + Am*
same,XRPD Form c: form assigned after the stability studies,[3]; [11],Form M2
"CC(C)[C@H](C(=O)Nc1ccc(C(=O)NO)cc1)c1ccccc1 [Form A5a, (S)—N-hydroxy-4-(3-methyl-2-phenylbutanamido)benzamide]",XRPD Form b: form assigned after storage under ambient conditions,[1]; [9],Form A5a
same,XRPD Form c: form assigned after the stability studies,[3]; [7],Form A5a
same,Stability after storage in a climate chamber,[3]; [12],exhibited a particular degree of stability
same,XRPD pattern following storage exposure in the climate chamber,[3]; [12],remained unchanged
CC(C)C(C(=O)Nc1ccc(C(=O)NO)cc1)c1ccccc1 (stereo not shown) [Form A + Form F1],XRPD Form b: form assigned after storage under ambient conditions,[1]; [9],Form A
same,XRPD Form c: form assigned after the stability studies,[3]; [7],Form A
CC(C)C(C(=O)Nc1ccc(C(=O)NO)cc1)c1ccccc1 (stereo not shown) [Form A + Form B1],XRPD Form b: form assigned after storage under ambient conditions,[1]; [5],Form B1_wet**
same,XRPD Form b: form assigned after storage under ambient conditions,[1]; [9],Form A_wet**
same,Concentration,"[2]; Table 2, solvent Acetone",108.9 mg/mL
same,XRPD Form c: form assigned after the stability studies,[3]; [7],Form A
same,XRPD Form c: form assigned after the stability studies,[3]; [4],Form A_wet**
CC(C)C(C(=O)Nc1ccc(C(=O)NO)cc1)c1ccccc1 (stereo not shown) [Form B1 + Form D1],Concentration,"[2]; Table 2, solvent Dioxane, 1,4-",32.3 mg/mL
"CC(C)[C@H](C(=O)Nc1ccc(C(=O)NO)cc1)c1ccccc1 [Form A4, (S)—N-hydroxy-4-(3-methyl-2-phenylbutanamido)benzamide]",XRPD Form b: form assigned after storage under ambient conditions,"[1]; 1-1.5 weeks ambient, cooling-evaporative crystallization, Table 7, label = form after recrystallization, slurry in cyclohexane/cyclohexanone",Form B1_wet**
same,XRPD Form b: form assigned after storage under ambient conditions,"[1]; 1-1.5 weeks ambient, cooling-evaporative crystallization, Table 7, label = form after recrystallization, slurry in cyclohexanone/tetrahydrofuran",Form R
same,XRPD Form c: form assigned after the stability studies,[3]; [8],Form A
"CC(C)[C@H](C(=O)Nc1ccc(C(=O)NO)cc1)c1ccccc1 [Form A3, (S)—N-hydroxy-4-(3-methyl-2-phenylbutanamido)benzamide]",XRPD Form b: form assigned after storage under ambient conditions,[1]; [6],Form L2
same,XRPD Form b: form assigned after storage under ambient conditions,[1]; [9],Form A
same,XRPD Form c: form assigned after the stability studies,[3]; [7],Form A
